Several values for one entry are separate records, joined by “and”; a condition that tells them apart may be missing. Equal entries are not always repeated. Structures can show the parent of a compound that is named as a salt.
System: patients with relapsed or refractory acute myeloid leukemia or high‐risk myelodysplastic syndromes
Description: This was a phase 1, open‐label, non‐randomized dose escalation study of milademetan as monotherapy (Part 1) or in combination with AZA (Part 1A; ClinicalTrials.gov identifier: NCT02319369).
Dose escalation of milademetan to determine the maximum tolerated dose (MTD) was guided by a Bayesian logistic regression model (BLRM) following escalation with overdose control principle with a starting dose of 60 mg based on safety and tolerability data from the first‐in‐human study of milademetan in solid tumors or lymphoma.[20]
In Part 1, 9 escalating dose cohorts (Figure S1) were investigated.
In Part 1A, milademetan was given in combination with AZA (75 mg/m^2 dose administered subcutaneously or intravenously on Days 1–7) with 2 dosing schedules of milademetan: in Cohorts 10 and 12, milademetan was administered QD for 10 days (Days 5–14; 160 and 200 mg, respectively); in Cohorts 11 and 13 milademetan was given QD for 7 days (Days 8–14; 160 and 200 mg, respectively).
Safety was the primary endpoint of the study and included treatment‐emergent adverse events (TEAE), serious adverse events (SAE), dose‐limiting toxicities (DLT), physical examination findings, and clinical laboratory values. TEAE were categorized according to the Medical Dictionary for Regulatory Activities (MeDRA) v17.0 and graded according to the National Cancer Institute‐Common Terminology for Adverse Events (NCI‐CTCAE) v5.0. Participants were followed up until 30 days after completion of study treatment. A DLT was defined as any TEAE of grade ≥3 not attributable to disease or disease‐related processes occurring during Cycle 1 in each dose‐level cohort.
The final MTD for each dosing regimen (QD 21/28 dosing and others) was decided based on considerations of the respective MTD estimated by the BLRM and on an overall assessment of safety data from subsequent cycles and pharmacokinetics (PK)/pharmacodynamics (PD) information collected at all different doses tested.
Cohorts of ≥3 DLT evaluable participants were enrolled per dose level, and the dose escalation decisions were guided by BLRM, governed by escalation with overdose control principle.

[1] = not assessed as related to milademetan

CC1(C)CCC2(CC1)N[C@@H](C(=O)N[C@@H]1CC[C@@H](C(N)=O)OC1)[C@H](c1ccnc(Cl)c1F)[C@]21C(=O)Nc2cc(Cl)ccc21 [Milademetan monotherapy, milademetan tosylate hydrate]
Pneumonia, TEAE Grade ≥3 (human, in vivo): 6 (11) n (%) | Pneumonia, TEAE all grades (human, in vivo): 9 (16) n (%) | Pyrexia, TEAE Grade ≥3 (human, in vivo): 1 (2) n (%) | Pyrexia, TEAE all grades (human, in vivo): 5 (9) n (%) | Rhinorrhea, TEAE Grade ≥3 (human, in vivo): 0 n (%) | Rhinorrhea, TEAE all grades (human, in vivo): 1 (2) n (%) | SAE (human, in vivo): 39 (68.4) n (%) | SAE: bacteremia (human, in vivo): 3 [5%] n [%] | SAE: cellulitis (human, in vivo): 3 [5%] n [%] | SAE: febrile neutropenia (human, in vivo): 5 [9%] n [%] | SAE: lung infection (human, in vivo): 9 [16%] n [%] | SAE: pneumonia (human, in vivo): 7 [12%] n [%] | SAE: pyrexia (human, in vivo): 3 [5%] n [%] | SAE: sepsis (human, in vivo): 7 [12%] n [%] | Sepsis, TEAE Grade ≥3 (human, in vivo): 8 (14) n (%) | Sepsis, TEAE all grades (human, in vivo): 8 (14) n (%) | Tolerability relative to MTD (human, in vivo): exceeded MTD | Vomiting, most common (>20%) TEAE (human, in vivo): 15 [26%] n [%] | Participants who experienced DLT (in vivo): Eight | Dose interruptions due to TEAE (monotherapy arm): 12 (21%) n (%) | Dose reductions due to TEAE (monotherapy arm): 3 (5%) n (%) | Maximum tolerated dose (MTD) of milademetan (monotherapy, QD 21/28 and QD 14/28 dosing schedules): 160 mg | Event associated with a fatal outcome: intracranial hemorrhage [1]: 1 patient | Event associated with a fatal outcome: lung infection [1]: 2 patients | Event associated with a fatal outcome: multi-organ failure [1]: 1 patient | Event associated with a fatal outcome: pneumonia [1]: 1 patient | Event associated with a fatal outcome: respiratory failure [1]: 1 patient | Event associated with a fatal outcome: sepsis [1]: 4 patients | Milademetan-related TEAE (per investigator assessment, safety analysis set): 47 (82.5) n (%) | Abdominal pain, TEAE all grades (safety analysis set): 7 (12) n (%) | Anemia, TEAE Grade ≥3 (safety analysis set): 9 (16) n (%) | Anemia, TEAE all grades (safety analysis set): 13 (23) n (%) | Any TEAE, Grade ≥3 (safety analysis set): 48 (84%) n (%) and 48 (84) n (%) and 48 (84.2) n (%) | Any TEAE, all grades (safety analysis set): 57 n (%) and 57 (100) n (%) | Arthralgia, TEAE Grade ≥3 (safety analysis set): 0 n (%) | Arthralgia, TEAE all grades (safety analysis set): 3 (5) n (%) | Asthenia, TEAE Grade ≥3 (safety analysis set): 1 (2) n (%) | Asthenia, TEAE all grades (safety analysis set): 7 (12) n (%) | Constipation, TEAE Grade ≥3 (safety analysis set): 0 n (%) | Constipation, TEAE all grades (safety analysis set): 3 (5) n (%) | Contusion, TEAE Grade ≥3 (safety analysis set): 0 n (%) | Contusion, TEAE all grades (safety analysis set): 2 (4) n (%) | Fatigue, TEAE all grades (safety analysis set): 20 (35) n (%) | Febrile neutropenia, TEAE Grade ≥3 (safety analysis set): 5 (9) n (%) | Febrile neutropenia, TEAE all grades (safety analysis set): 6 (11) n (%) | Fluid overload, TEAE Grade ≥3 (safety analysis set): 0 n (%) | Fluid overload, TEAE all grades (safety analysis set): 2 (4) n (%) | Fungal pneumonia, TEAE Grade ≥3 (safety analysis set): 2 (4) n (%) | Fungal pneumonia, TEAE all grades (safety analysis set): 2 (4) n (%) | Headache, TEAE Grade ≥3 (safety analysis set): 0 n (%) | Headache, TEAE all grades (safety analysis set): 2 (4) n (%) | Hemorrhoids, TEAE Grade ≥3 (safety analysis set): 1 (2) n (%) | Hemorrhoids, TEAE all grades (safety analysis set): 3 (5) n (%) | Malaise, TEAE Grade ≥3 (safety analysis set): 0 (0) n (%) | Malaise, TEAE all grades (safety analysis set): 6 (11) n (%) | Milademetan-related Grade ≥3 TEAE (safety analysis set): 19 (33%) n (%) and 19 (33.3) n (%) | Milademetan-related SAE (safety analysis set): 7 (12%) n (%) and 7 (12.3) n (%) | Milademetan-related TEAE associated with milademetan discontinuation (safety analysis set): 5 (8.8) n (%) | Muscular weakness, TEAE Grade ≥3 (safety analysis set): 0 n (%) | TEAE associated with death (safety analysis set): 9 (16%) n (%) and 9 (15.8)^a n (%) | TEAE associated with milademetan discontinuation (safety analysis set): 13 (23%) n (%) and 13 (22.8) n (%) | Thrombocytopenia, TEAE Grade ≥3 (safety analysis set): 15 (26) n (%) | Thrombocytopenia, TEAE all grades (safety analysis set): 15 (26) n (%) | Vomiting, TEAE Grade ≥3 (safety analysis set): 2 (4) n (%) | Vomiting, TEAE all grades (safety analysis set): 24 (42) n (%)
